This passage reports IC50 and melting point results from publication PMC8401699, “Synthesis, DFT Calculations, Antiproliferative, Bactericidal Activity and Molecular Docking of Novel Mixed-Ligand Salen/8-Hydroxyquinoline Metal Complexes” (Molecules, 2021).

One series concerns Hep-G2 cells. Kind of series: MTT cytotoxicity assay, Hep-G2. The note with it: read-out: IC50 Values, Hep-G2 Cell Line. Type of series: cell-based, human. As for the experimental part:
(§1) The cytotoxic activities of the synthesized ligands and metal complexes against the breast cancer cell line MDA-MB231, the hepatic cellular (Hep-G2), and normal cell line (HEK-293) were assessed by MTT assay. A cell suspension was diluted by complete medium to a concentration of 5 × 10^4 cell/mL. Using a micropipette, we pipetted 100 μL aliquots of the cell suspension into each well of 96-well plate (≈5000 cells/well). The 96-well plate was incubated at 37 °C for 24 h to allow cell attachment. After 24 h, cells were treated with 100 µL of growth medium containing […] of the newly synthesized compounds in triplicate. Cells were washed with phosphate-buffered saline (PBS), and fresh relevant medium containing 20 μL MTT in PBS (0.5 mg/mL) was added to the test wells. […] The MTT assay technique is based on the reduction of the tetrazolium salt MTT to insoluble purple formazan by metabolically active cells, making their activities quantifiable by spectrophotometry. […] Cell viability was determined by measuring the absorbance of each well at 570 nm (and at a reference wavelength of 630 nm) using an ELISA plate reader. […] IC50 values were calculated using Graph Pad Prism version 6.01, 2012 (GraphPad software, San Diego, CA, USA), by plotting the log concentration versus corresponding viability (%) to generate dose–response curves. […]
On the technique in general: Tetrazolium dyes change colour on reduction, which living cells bring about.

The next series deals with MDA-MB231 cells. Briefly: MTT cytotoxicity assay, MDA-MB231. The following applies: read-out: IC50 Values, MDA-MB231 Cell Line. Type of series: cell-based, human. As for the experimental part:
as §1

Another series concerns HEK-293 cells. Kind of series: MTT cytotoxicity assay, normal cell line HEK-293. Type of series: cell-based. As for the experimental part: A cell suspension was diluted by complete medium to a concentration of 5 × 10^4 cell/mL. Using a micropipette, we pipetted 100 μL aliquots of the cell suspension into each well of 96-well plate (≈5000 cells/well). The 96-well plate was incubated at 37 °C for 24 h to allow cell attachment. After 24 h, cells were treated with 100 µL of growth medium containing […] of the newly synthesized compounds in triplicate. Cells were washed with phosphate-buffered saline (PBS), and fresh relevant medium containing 20 μL MTT in PBS (0.5 mg/mL) was added to the test wells. The plate was further incubated in a CO2 incubator at 37 °C for 4 h, and then MTT assay analysis was performed. The MTT assay technique is based on the reduction of the tetrazolium salt MTT to insoluble purple formazan by metabolically active cells, making their activities quantifiable by spectrophotometry. Accordingly, the formed formazan crystals were dissolved in 120 μL DMSO for each well. Cell viability was determined by measuring the absorbance of each well at 570 nm (and at a reference wavelength of 630 nm) using an ELISA plate reader.

Read-outs that look alike come from different tables or passages of the source.

As for `Oc1ccccc1C=NCCN=Cc1ccccc1O` [S, 2,2′-{1,2-ethanediylbis[nitrilo(E)methylylidene]}diphenol], the melting point (in general, the temperature, or range, at which the solid turns liquid) was 127 °C. For the same compound, the IC50 (usually the point on the concentration scale where inhibition reaches its midpoint) in the series with Hep-G2 cells (Homo sapiens, HepG2, Hep-G2 liver carcinoma cells) was 1.1 ± 0.1 µM. The IC50 with MDA-MB231 cells (Homo sapiens, MDA-MB-231, MDA-MB231 breast carcinoma cells) was found to be 27.54 ± 0.08 µM. In addition, in the series on HEK-293 cells (Homo sapiens, HEK293, read-out: IC50 Values, HEK-293 Cell Lines), the IC50 was found to be 93.06 ± 0.04 µM.

Take `N.N.[Cl][Pt][Cl]` [Cisplatin, reference compound]: the IC50 in the series with Hep-G2 cells (Hep-G2 liver carcinoma cells) was found to be 1.55 ± 0.06 µM; in the series with MDA-MB231 cells (MDA-MB231 breast carcinoma cells) it was 1.87 ± 0.09 µM; in the series on HEK-293 cells (read-out: IC50 Values, HEK-293 Cell Lines), 94.1 ± 0.05 µM.
